From patent publication US20260226101A1, “PEPTIDE WITH ANTI-INFLAMMATORY AND ANTI-MICROBIAL ACTIVITY” (priority 2023, published 2026) come the findings set out here.

A short description of this data set: in vitro. In kind it is cell-based, murine. The following applies: mouse. Here is the method: Cell viability of synthetic peptides on the growth of RAW264.7 cells was measured using the methyl thiazolyl tetrazolium (MTT) assay after 48 h. Briefly, exponentially growing macrophages RAW264.7 cells were mechanically scraped, plated at a density of 7×10^3 cells in 100 μl were seeded into each well of a 96-well plate then incubated for 12 h at 37° C. under 5% CO2, and then the cells are treated with test peptides: IS 111 ([…]) or dexamethasone ([…]) cells were incubated at 37° C. in the presence of 5% CO2 for 42 h. After incubation, the morphology of cells was examined under a microscope. Following incubation, MTT was added to the cells (20 μL at 5 mg/mL MTT dissolved in 1×PBS) and incubated for 4 hours in the presence of 5% CO2 at 37° C. Formazan crystals were dissolved by the addition of 100 μL of 100% DMSO per well. Plates were then gently swirled for 5 min at room temperature to dissolve the precipitate. Absorbance was monitored at 575 nm using a microplate reader. Maximum cytotoxicity (100%) was determined by cells incubated with 1% Triton X-100; PBS was used as a negative control. Cells without treatment were considered as control. The average absorbance for each sample group was used to evaluate cell viability.
Optical density (O.D.) was calculated as the difference between the absorbance at the reference wavelength and that at the test wavelength. The relative cell viability was determined by the amount of MTT converted to the insoluble formazan salt. The data were expressed as the mean percentage of viable cells when compared with untreated cells (control). The half maximal growth inhibitory concentration (IC50) value was calculated from the line equation of the dose-dependent curve of each compound. The results were compared with the cytotoxic activity of dexamethasone, a known anti-inflammatory drug. […] Percentages of cell viability and LC50 of cells were calculated: Percent cell viability was calculated as (O.D. of drug-treated sample/control O.D.)×100. The data were expressed as percent cell viability compared with control (dimethyl sulfoxide/NS). The experiment was carried out in four samples of each concentration.
The percentages of cell viability and LC50 of cells were calculated by using the formula below.
Where Absorbance control is the DMSO 0.1%-treated cell absorbance, and Absorbance sample is the test sample-treated cell absorbance. LC50 values were derived from dose-response curves, and data were expressed as the mean of three independent experiments. Statistical analyses involved Student's t-test and one-way ANOVA.
The test peptide IS 111 cytotoxic effects on RAW 264.7 mouse […] were determined by MTT assay. […] Cell viability was measured by MTT assay based on the conversion of yellow tetrazolium salt to form a purple formazan product. The viability of the RAW 264.7 cells can be seen on table 21.

SMILES strings stand for the structures.

As usually defined, the viability is a read-out of living cells in per cent, often relative to untreated cells. Regarding `C[C@@H]1C[C@H]2[C@@H]3CCC4=CC(=O)C=C[C@]4(C)[C@@]3(F)[C@@H](O)C[C@]2(C)[C@@]1(O)C(=O)CO` [Dexamethasone, dexamethasone, reference compound], the viability at 48 h, 7.8125 µg/mL worked out at 102%; the viability at 48 h, 15.625 µg/mL was 90%; the viability at 48 h, 31.25 µg/mL came out at 82.8%; the viability at 48 h, 62.5 µg/mL turned out to be 91.4%. Also, the viability at 48 h, 125 µg/mL amounted to 96%; the viability at 48 h, 250 µg/mL worked out at 90.8%; the viability at 48 h, 500 µg/mL stood at 84.6%.
